Assay results from patent US20060100173A1, “Ophthalmic solution” (priority 2004, published 2006).
Structures can show the parent of a compound that is named as a salt.

System: five organisms
Test: Antimicrobial activity, sum of log drops of five organisms
Assay type: cell-based
Details: HA 1.7M relative to non-HA control and/or lower molecular weight HA compositions; Tris buffered

Row | Compound | reduction of the sum of the kill level by HA of MW 1.7M
1 | CCCCC(CC)CNC(=N)NC(=N)NCCCCCCNC(=N)NC(=N)NCC(CC)CCCC (centres unmarked) [ALX, Alexidine Dihydrochloride] | about 2 log
2 | poly[hexamethylene biguanide hydrochloride] [PHMB] | about 4 log
